According to publication PMC9501280, “Anti-Inflammatory Activity of Soluble Epoxide Hydrolase Inhibitors Based on Selenoureas Bearing an Adamantane Moiety” (International Journal of Molecular Sciences, 2022):
Values after ≈ are worked out from the molar mass of the structure shown. Read-outs that look alike come from different tables or passages of the source.

How the values were obtained:
human recombinant sEH = target: T1, human recombinant sEH (Homo sapiens, UniProt P34913); test: Human sEH inhibition, kinetic fluorescent assay; assay type: biochemical; details: kinetic fluorescent assay; means of three separate experiments; read-out: Human sEH IC50
T1 sequence (P34913 1-555): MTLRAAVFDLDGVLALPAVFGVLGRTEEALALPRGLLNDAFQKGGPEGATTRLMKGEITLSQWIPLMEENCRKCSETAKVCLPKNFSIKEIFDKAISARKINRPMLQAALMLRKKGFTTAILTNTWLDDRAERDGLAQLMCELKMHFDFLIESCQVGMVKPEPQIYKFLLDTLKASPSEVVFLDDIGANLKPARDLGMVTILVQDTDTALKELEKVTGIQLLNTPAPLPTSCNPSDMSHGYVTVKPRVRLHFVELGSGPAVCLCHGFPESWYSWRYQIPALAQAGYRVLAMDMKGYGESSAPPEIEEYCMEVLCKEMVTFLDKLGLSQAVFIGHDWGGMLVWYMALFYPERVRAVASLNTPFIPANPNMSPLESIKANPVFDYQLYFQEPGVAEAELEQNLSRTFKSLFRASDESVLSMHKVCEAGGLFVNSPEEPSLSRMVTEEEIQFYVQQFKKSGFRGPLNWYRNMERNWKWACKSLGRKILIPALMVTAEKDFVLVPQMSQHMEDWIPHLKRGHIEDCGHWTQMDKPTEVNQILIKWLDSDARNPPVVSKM

[1] = Solubility in sodium phosphate buffer; assay type: physicochemical; details: aqueous buffer, kinetic from dmso stock; sodium phosphate buffer (pH 7.4, 0.1 M) containing 1% DMSO
Procedure: To our knowledge, no systematic studies of selenoureas as sEH inhibitors have been performed previously. The potency of the compounds was determined against the human recombinant sEH and their solubility assessed in phosphate-buffered saline (Table 1).

E. coli PQ37 = test: SOS chromotest; assay type: cell-based; details: induction factor
Procedure: For the final safety check of selenoureas, the SOS chromotest was carried out. […] The results are presented as the mean value of induction factor I (c) ± SEM based on the results of three independent experiments, each of which included three replicates (Table 5).
The SOS chromotest was carried out according to the standard procedure, with recommended additions. The E. coli PQ37 strain was provided by P. Quillardet (Paris, France). The test compounds were dissolved in dimethyl sulfoxide (DMSO) (also used as a negative control) and added to the bacterial medium in the required concentrations; the concentration of the injected solutions was 1% by volume.

[2] = MTT cytotoxicity on peritoneal macrophages; assay type: cell-based, mice; details: male, C57bl/6j, mouse, 24 h incubation, read-out: MTT CC50 ± SE
Procedure: (§1) Peritoneal macrophages (PM) were isolated from the peritoneal exudate of 30 male C57bl/6j mice. To accumulate PM, 1 mL of 3% peptone solution was injected intraperitoneally. After 3 days, the mice were euthanized by cervical dislocation. Cells of peritoneal exudate were obtained by aseptic washing of the abdominal cavity with 5 mL of sterile Hanks’s solution (+4–6 °C) without calcium and magnesium ions. The total number and viability of cells were assessed in a Goryaev counting chamber (Russia) with a 0.4% trypan blue staining (Sigma-Aldrich, St. Louis, MO, USA). The cell concentration was adjusted to 1.0 × 10^6 cells/mL in DMEM (Gibco) supplemented with 2 mM L-glutamine (Gibco), 10% heat-inactivated fetal bovine serum (BioClot, Passau, Germany), 100 U/mL penicillin and […] streptomycin (Gibco) and plated 200 μL/well in 96-well transparent plates (SPL Life Sciences Co., Ltd., Pochon, Korea). After 2 h at 37 °C in a humidified atmosphere with 5% CO2, wells were washed to remove nonadherent cells. After 24 h of incubation, 20 μL of the supernatants were substituted with 20 μL of solutions of the test compounds, followed with E. coli O127:B8 LPS (100 ng/mL final concentration) after 30 min. Experiments were run in 3 independent replicates.
(§2) The activity of lactate dehydrogenase (LDH) in a cell culture medium served as a marker of membrane permeability and cell death. Aliquots of supernatants were taken after 24 h of inoculation with test compounds, mixed with 250 μL of […] NADH solution in 54 mM phosphate-buffered saline (pH 7.5). Then, 25 μL of a 6.48 mM pyruvate solution was added to the mixture. The optical density was followed at a wavelength of 340 nm for 20 min. The MTT test was performed 24 h after the incubation of cells with the tested compounds. Briefly, 20 μL of MTT solution was added to each well and incubated at 37 °C in a humidified atmosphere containing 5% CO2 for 4 h. The culture medium was aspirated, the cells were lysed and formazan crystals dissolved in 150 μL of DMSO. The plates were shaken at room temperature for 10 min, and the optical density was measured in a microplate reader Infinite M200 PRO (Tecan Group Ltd., Männedorf, Switzerland) at a wavelength of 565 nm.

[3] = system: C57bl/6j peritoneal macrophages; test: MTT cytotoxicity on peritoneal macrophages; assay type: cell-based, mice; details: Mus musculus, Peritoneal macrophage, read-out: EC50 ± SEM, C57bl/6j
Procedure: as §1, §2

[4] = LDH release cytotoxicity on peritoneal macrophages; assay type: cell-based, mice; details: male, C57bl/6j, mouse, 24 h incubation, read-out: LDH CC50 ± SE
Procedure: as §1
as §2, with “Briefly, 20 μL of MTT solution was added to each well and incubated at 37 °C in a humidified atmosphere containing 5% CO2 for 4 h. The culture medium was aspirated, the cells were lysed and formazan crystals dissolved in 150 μL of DMSO.” left out

[5] = system: human fibroblast cells (MRC-5); test: MTT test with human fibroblast cells; assay type: cell-based; details: read-out: EC50 ± SEM, MRC-5
Procedure: The studied compounds were added in concentrations of 1, 3, 6, 12, 25, 50, and 100 μM.
Human fibroblast cells (MRC-5) were used in this study. The cells were cultured in the DMEM medium that contained 10% embryonic calf serum in a CO2 incubator at 37 °C. The tested compounds were dissolved in DMSO and added to the cellular culture at the required concentrations. Three wells were used for each concentration. The cells that were incubated without the compounds were used as a negative control, and doxorubicin was used as the positive one. Cells were placed on 96-well microliter plates and cultivated at 37 °C in 5% CO2/95% air for 72 h. The cell viability was assessed through an MTT (3-(4,5-dimethylthiazol-2-yl)-2,5-phenyl-2H-tetrazolium bromide) conversion assay. A total of 1% MTT was added to each well. Three hours later, isopropanol was added and mixed for 15 min. Optical density (OD) of the samples was measured on a ThermoFischer multi-well spectrophotometer at a wavelength of 450 nm. […] The experimental results are given as average values obtained from three independently conducted experiments.

[6] = system: LPS-stimulated C57bl/6j peritoneal macrophages; test: Suppression of NO synthesis in LPS-stimulated peritoneal macrophages (Griess); assay type: cell-based, mice; details: for IC50: Mus musculus, Peritoneal macrophage, read-out: NO Synthesis, IC50 ± SE
Excerpt: For screening designed compounds according to their probable ability to limit inflammation, we used a test on the inhibition of LPS-induced activation of primary murine macrophages. The most prominent anti-inflammatory activity, defined as the suppression of nitric oxide synthesis by LPS-stimulated macrophages, was evident for compounds 4a and 5b. At the same time, for 4a, the cytotoxic concentration was 4.7–18.4 times higher than the effective anti-inflammatory concentration. […] According to the data obtained, there is no direct correlation between the efficiency of the inhibition of sEH and NO synthesis, which requires further studies of the anti-inflammatory activity of the investigated compounds.
as §1
The accumulation of nitrite anion (a stable decomposition product of NO produced by iNOS) in the supernatants was determined using a standard Griess reagent. Briefly, 50 μL of supernatants collected 22 h after incubation of PM with the test and control compounds were mixed with 50 μL of 1% sulfonamide in 2.5% H3PO4 and 50 μL of 0.1% N-(1-naphthyl) ethylenediamine in 2.5% H3PO4. After incubation at 23 °C for 10 min. in an orbital shaker, the optical density was determined at a wavelength of 550 nm with a microplate reader Infinite M200 PRO (Tecan, Austria).

Row | SMILES | melting point [°C] | IC50 (human recombinant sEH) [nM] | solubility [1] [µM] | other results
1 | [Se]=C(NCc1ccccc1)Nc1ccc(C23CC4CC(CC(C4)C2)C3)cc1 [5e, 1-[4-(Adamantan-1-yl)phenyl]-3-benzylselenourea] | 147 to 148 | 204 | 200 ± 20 (≈ 84.7 µg/mL) | 
2 | [Se]=C(NCc1ccccc1)NCC12CC3CC(CC(C3)C1)C2 [5b, 1-[(Adamantan-1-yl)methyl]-3-benzylselenourea] | 158 to 159 | 200 |  | I(c) ± SE, 10 µM (E. coli PQ37; compound 10 µM): 1.12 ± 0.18; I(c) ± SE, 25 µM (E. coli PQ37; compound 25 µM): 0.95 ± 0.13; I(c) ± SE, 50 µM (E. coli PQ37; compound 50 µM): 0.99 ± 0.11; I(c) ± SE, 100 µM (E. coli PQ37; compound 100 µM): 0.97 ± 0.08; CC50 at 24 h [2]: 17.7 ± 5.7 µM; EC50 [3]: 17.7 ± 5.66 µM; CC50 at 24 h [4]: 20.4 ± 5.3 µM; EC50 ([5]; MRC5, 72 h): 3040 ± 660 nM; cytotoxic concentration versus effective anti-inflammatory concentration ([6]; CC50 (MTT, LDH) over NO synthesis IC50, peritoneal macrophages): comparable; IC50 ([6]; 22 h): 27.8 ± 5.2 µM
3 | CC12CC3CC(C)(C1)CC(NC(=[Se])NCc1ccccc1)(C3)C2 [5f, 1-(3,5-Dimethyladamantan-1-yl)-3-benzylselenourea] | 112 to 113 | 48.5 |  | 
4 | [Se]=C(NCCC12CC3CC(CC(C3)C1)C2)NCc1ccccc1 [5d, 1-[2-(Adamantan-1-yl)ethyl]-3-benzylselenourea] | 142 to 143 | 34.3 | 140 ± 20 (≈ 52.6 µg/mL) | 
5 | C[C@@H]1C[C@H]2[C@@H]3CCC4=CC(=O)C=C[C@]4(C)[C@@]3(F)[C@@H](O)C[C@]2(C)[C@@]1(O)C(=O)CO [Dexamethasone, reference compound] |  |  |  | CC50 at 24 h ([2]; primary peritoneal macrophages): > 100 µM; EC50 ([3]; MTT, peritoneal macrophages of C57bl/6j mice): > 100 µM; CC50 at 24 h ([4]; primary peritoneal macrophages): > 100 µM; IC50 ([6]; LPS 100 ng/mL, supernatants after 22 h): 0.003 ± 0.001 µM
6 | CC(NC(=[Se])NCc1ccccc1)C12CC3CC(CC(C3)C1)C2 (centres unmarked) [5c, 1-[1-(Adamantan-1-yl)ethyl]-3-benzylselenourea] | 154 to 155 | 274 | 110 ± 20 (≈ 41.3 µg/mL) | 
7 | CC(=O)N1CCC(NC(=O)NC23CC4CC(CC(C4)C2)C3)CC1 [compound 1153, reference compound] |  |  | 970 ± 60 (≈ 310 µg/mL) | 
8 | COc1cccc2c1C(=O)c1c(O)c3c(c(O)c1C2=O)C[C@@](O)(C(=O)CO)C[C@@H]3O[C@H]1C[C@H](N)[C@H](O)[C@H](C)O1 [doxorubicin, reference compound] |  |  |  | EC50 ([5]; MRC5, MTT, 72 h): 2410 ± 150 nM
9 | [Se]=C(NCc1ccccc1)NC1C2CC3CC(C2)CC1C3 (centres unmarked) [5g, 1-(Adamantan-2-yl)-3-benzylselenourea] | 139 to 140 | 120 | 110 ± 10 (≈ 38.2 µg/mL) | 
